Data: PMC9287416, “Externalized phosphatidylinositides on apoptotic cells are eat-me signals recognized by CD14” (Cell Death and Differentiation, 2022)
Where two headings read alike, the source gives them in different places.

Biological target: T1, CD14 (Homo sapiens, UniProt P08571)
T1 construct: full-length human CD14 expressed in HEK293T cells, recombinant; His-tagged protein used in flow cytometry
T1 sequence (P08571 20-345): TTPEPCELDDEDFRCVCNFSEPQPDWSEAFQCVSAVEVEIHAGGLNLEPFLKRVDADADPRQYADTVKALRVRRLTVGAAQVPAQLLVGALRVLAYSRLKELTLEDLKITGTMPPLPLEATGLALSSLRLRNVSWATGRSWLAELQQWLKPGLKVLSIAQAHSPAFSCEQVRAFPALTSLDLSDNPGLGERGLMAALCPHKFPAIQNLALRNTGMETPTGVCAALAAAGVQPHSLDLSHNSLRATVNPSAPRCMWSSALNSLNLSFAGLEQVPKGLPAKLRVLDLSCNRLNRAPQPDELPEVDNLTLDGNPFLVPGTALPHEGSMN
Test: isothermal titration calorimetry
Assay type: binding

Kd [µM] | Kd (PI(3,4,5)P3 in liposomes) [µM] | Molecule
6.2 ± 1.2 | – | O=P(O)(O)O[C@H]1[C@H](OP(=O)(O)O)[C@@H](OP(=O)(O)O)[C@H](OP(=O)(O)O)[C@@H](OP(=O)(O)O)[C@H]1OP(=O)(O)O [IP6]
– | 5.6 ± 0.6 | PI(3,4,5)P3
